Experiments:
Details in all cases: 48 h
[1] = system: NOMO1; assay: AUC of viability dose-response curve (% viability x log10 dose units); higher = less sensitive
Method in brief: (§1)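 In 1536-well plates, leukemia cells adapted to each medium (500 or 1000 cells/well) were exposed for 48 h at 37°C to library compounds in DMSO across 11 threefold doses, 47 μM down to 0.79 nM. Viability was read by CellTiter-Glo One luminescence and normalised per plate to DMSO and cell-free wells. A four-parameter log-logistic fit over log10 doses was integrated by trapezoidal rule. This yielded the area under the curve, with over-full-viability curves scaled and quality-control failures dropped.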

[2] = system: SEM cells; assay: as above
Method in brief: as §1

[3] = system: P12-Ichikawa; assay: cell viability relative to DMSO control; higher = less cytotoxic
Method in brief: (§2)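 Library compounds in DMSO were pin-dosed in an 11-point threefold series (47 μM to 0.79 nM) onto leukemia cells in 1536-well plates (5 μl). Plates held 500 cells/well of NOMO1 or SEM or 1000 cells/well of P12-Ichikawa, each adapted for at least four passages in each medium. Luminescence was read with CellTiter-Glo One after 48 h at 37°C. Viability means the per-plate percentage relative to DMSO wells, using cell-free wells as background.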

[4] = system: NOMO1; assay: as above
Method in brief: as §2

[5] = system: SEM cells; assay: as above
Method in brief: as §2

[6] = system: P12-Ichikawa; assay: AUC of viability dose-response curve (% viability x log10 dose units); higher = less sensitive
Method in brief: as §1

CC[C@H](NC(=O)[C@H](C)NC)C(=O)N1C[C@@H](O)C[C@H]1Cc1c(-c2[nH]c3cc(F)ccc3c2C[C@@H]2C[C@H](O)CN2C(=O)[C@H](CC)NC(=O)[C@H](C)NC)[nH]c2cc(F)ccc12
AUC of viability dose-response curve
Details	HPLM + 10% dialyzed FBS	RPMI 5 mM glucose + 10% FBS	RPMI 5 mM glucose + 10% dialyzed FBS
[1]	347	323	362
[2]	469	442	437

cell viability [%]
Details	[3]	[4]	[5]
HPLM + 10% dialyzed FBS, 0.000781 µM	115	113	90.7
HPLM + 10% dialyzed FBS, 0.00234 µM	129	112	122
HPLM + 10% dialyzed FBS, 0.00702 µM	124	123	116
HPLM + 10% dialyzed FBS, 0.0211 µM	137	114	116
HPLM + 10% dialyzed FBS, 0.0632 µM	137	126	136
HPLM + 10% dialyzed FBS, 0.19 µM	125	110	134
HPLM + 10% dialyzed FBS, 0.569 µM	139	89.9	129
HPLM + 10% dialyzed FBS, 1.71 µM	131	67.3	134
HPLM + 10% dialyzed FBS, 5.12 µM	32.8	22.6	112
HPLM + 10% dialyzed FBS, 15.4 µM	31.3	20.3	119
HPLM + 10% dialyzed FBS, 46.1 µM	110	21.8	88.2
RPMI 5 mM glucose + 10% dialyzed FBS, 0.000781 µM	–	113	–
RPMI 5 mM glucose + 10% dialyzed FBS, 0.00234 µM	–	122	–
RPMI 5 mM glucose + 10% dialyzed FBS, 0.00702 µM	–	145	–
RPMI 5 mM glucose + 10% dialyzed FBS, 0.0211 µM	–	150	–
RPMI 5 mM glucose + 10% dialyzed FBS, 0.0632 µM	–	150	–
RPMI 5 mM glucose + 10% dialyzed FBS, 0.19 µM	–	128	–
RPMI 5 mM glucose + 10% dialyzed FBS, 0.569 µM	–	115	–
RPMI 5 mM glucose + 10% dialyzed FBS, 1.71 µM	–	106	–
RPMI 5 mM glucose + 10% dialyzed FBS, 5.12 µM	–	17.3	–
RPMI 5 mM glucose + 10% dialyzed FBS, 15.4 µM	–	16.2	–
RPMI 5 mM glucose + 10% dialyzed FBS, 46.1 µM	–	12.5	–

CC[C@@H]1/C=C(\C)C[C@H](C)C[C@H](OC)[C@H]2O[C@@](O)(C(=O)C(=O)N3CCCC[C@H]3C(=O)O[C@H](/C(C)=C/[C@@H]3CC[C@H](Cl)[C@H](OC)C3)[C@H](C)[C@@H](O)CC1=O)[C@H](C)C[C@@H]2OC
AUC of viability dose-response curve
Details	[1]	[2]	[6]
HPLM + 10% dialyzed FBS	457	451	467
RPMI 5 mM glucose + 10% FBS	466	453	456
RPMI 5 mM glucose + 10% dialyzed FBS	474	449	468

[5], HPLM + 10% dialyzed FBS
Details	cell viability [%]
0.000781 µM	115
0.00234 µM	128
0.00702 µM	117
0.0211 µM	135
0.0632 µM	122
0.19 µM	128
0.569 µM	117
1.71 µM	109
5.12 µM	109
15.4 µM	105
46.1 µM	104

O=C(CCN1CCN(C(=O)OCc2cc(Cl)cc(Cl)c2)CC1)c1ccc2[nH]c(=O)oc2c1
AUC of viability dose-response curve
Details	[1]	[2]	[6]
HPLM + 10% dialyzed FBS	470	472	466
RPMI 5 mM glucose + 10% FBS	431	465	454
RPMI 5 mM glucose + 10% dialyzed FBS	448	469	459

N[S+](=O)([O-])NCCNc1nonc1/C(=N/O)Nc1ccc(F)c(Br)c1
AUC of viability dose-response curve
Details	[1]	[2]	[6]
HPLM + 10% dialyzed FBS	353	435	354
RPMI 5 mM glucose + 10% FBS	373	375	389
RPMI 5 mM glucose + 10% dialyzed FBS	411	414	401

NC/1=N/C(=O)N(/C=C1F)[C@H]2CS[C@H](CO)O2
AUC of viability dose-response curve
Details	HPLM + 10% dialyzed FBS	RPMI 5 mM glucose + 10% FBS	RPMI 5 mM glucose + 10% dialyzed FBS
[1]	472	449	462
[2]	392	442	418

cell viability [%]
Details	HPLM + 10% dialyzed FBS	RPMI 5 mM glucose + 10% FBS	RPMI 5 mM glucose + 10% dialyzed FBS
[4], 0.000781 µM	–	108	–
[4], 0.00234 µM	–	121	–
[4], 0.00702 µM	–	121	–
[4], 0.0211 µM	–	127	–
[4], 0.0632 µM	–	133	–
[4], 0.19 µM	–	157	–
[4], 0.569 µM	–	141	–
[4], 1.71 µM	–	139	–
[4], 5.12 µM	–	131	–
[4], 15.4 µM	–	151	–
[4], 46.1 µM	–	141	–
[5], 0.000781 µM	83.9	–	101
[5], 0.00234 µM	107	–	118
[5], 0.00702 µM	107	–	115
[5], 0.0211 µM	115	–	152
[5], 0.0632 µM	124	–	126
[5], 0.19 µM	116	–	121
[5], 0.569 µM	123	–	144
[5], 1.71 µM	126	–	131
[5], 5.12 µM	143	–	137
[5], 15.4 µM	142	–	144
[5], 46.1 µM	148	–	153

O=C(Oc1ccc([N+](=O)[O-])cc1)N1CCC(C(O)(c2ccc3c(c2)OCO3)c2ccc3c(c2)OCO3)CC1
AUC of viability dose-response curve
Details	HPLM + 10% dialyzed FBS	RPMI 5 mM glucose + 10% FBS	RPMI 5 mM glucose + 10% dialyzed FBS
[2]	396	379	418
[6]	439	432	411

cell viability [%]
Details	[3]	[4]	[5]
HPLM + 10% dialyzed FBS, 0.000781 µM	90	102	72.2
HPLM + 10% dialyzed FBS, 0.00234 µM	95.5	95.5	89.4
HPLM + 10% dialyzed FBS, 0.00702 µM	90.2	93	64.5
HPLM + 10% dialyzed FBS, 0.0211 µM	98.7	119	97
HPLM + 10% dialyzed FBS, 0.0632 µM	92	107	86.3
HPLM + 10% dialyzed FBS, 0.19 µM	99.4	92.3	94.8
HPLM + 10% dialyzed FBS, 0.569 µM	102	107	99.7
HPLM + 10% dialyzed FBS, 1.71 µM	91.4	88.5	83.7
HPLM + 10% dialyzed FBS, 5.12 µM	93.6	85.3	46.6
HPLM + 10% dialyzed FBS, 15.4 µM	79.3	89.8	93.5
HPLM + 10% dialyzed FBS, 46.1 µM	69.3	58.4	86.1
RPMI 5 mM glucose + 10% FBS, 0.000781 µM	91.8	87.7	83.3
RPMI 5 mM glucose + 10% FBS, 0.00234 µM	85	87.7	72
RPMI 5 mM glucose + 10% FBS, 0.00702 µM	90.3	83	58.6
RPMI 5 mM glucose + 10% FBS, 0.0211 µM	99.3	91.8	93.2
RPMI 5 mM glucose + 10% FBS, 0.0632 µM	91.3	96.6	94.5
RPMI 5 mM glucose + 10% FBS, 0.19 µM	91.9	90.1	90.4
RPMI 5 mM glucose + 10% FBS, 0.569 µM	99.3	86.2	84
RPMI 5 mM glucose + 10% FBS, 1.71 µM	90.3	86.3	78.6
RPMI 5 mM glucose + 10% FBS, 5.12 µM	68.5	88.3	35.4
RPMI 5 mM glucose + 10% FBS, 15.4 µM	93.7	88.4	99.3
RPMI 5 mM glucose + 10% FBS, 46.1 µM	93.1	89.2	85.5
RPMI 5 mM glucose + 10% dialyzed FBS, 0.000781 µM	75.9	73.1	90.1
RPMI 5 mM glucose + 10% dialyzed FBS, 0.00234 µM	88.5	73.3	95
RPMI 5 mM glucose + 10% dialyzed FBS, 0.00702 µM	86.3	86	61.6
RPMI 5 mM glucose + 10% dialyzed FBS, 0.0211 µM	88.6	80.4	95.9
RPMI 5 mM glucose + 10% dialyzed FBS, 0.0632 µM	90.2	90.3	88.6
RPMI 5 mM glucose + 10% dialyzed FBS, 0.19 µM	90.3	77.9	94.7
RPMI 5 mM glucose + 10% dialyzed FBS, 0.569 µM	86.4	84.2	97.9
RPMI 5 mM glucose + 10% dialyzed FBS, 1.71 µM	91.8	71	99.3
RPMI 5 mM glucose + 10% dialyzed FBS, 5.12 µM	73.5	65.6	46.3
RPMI 5 mM glucose + 10% dialyzed FBS, 15.4 µM	91.1	74.6	96.2
RPMI 5 mM glucose + 10% dialyzed FBS, 46.1 µM	84.9	74.5	98.2

CC(C)(O)Cn1c(NC(=O)c2ccc(-c3cn[nH]c3)s2)nc2cc(CN3CCOCC3)ccc21
AUC of viability dose-response curve
Details	[1]	[2]	[6]
HPLM + 10% dialyzed FBS	352	226	365
RPMI 5 mM glucose + 10% FBS	369	206	364
RPMI 5 mM glucose + 10% dialyzed FBS	368	207	364

— the supplement of paper PMC11451515
